# Test system: Phytophthora infestans
# Assay type: in vivo, Phytophthora infestans on Potato
# Settings: Potato field trial, France 2010, 6 foliar sprays, fluopicolide 75 g a.s./ha, cyazofamid 60 g a.s./ha, adjuvant 150 ml/ha
structure (smiles),measurement,setting,value
"O=C(NCc1ncc(C(F)(F)F)cc1Cl)c1c(Cl)cccc1Cl [Fluopicolide, 2,6-dichloro-N-[3-chloro-5-(trifluoromethyl)-2-pyridylmethyl]benzamide]",Efficacy (Abbott values),29 days after last application,18.3%
same,Late blight severity on leaves,"assessed 29 days after last application, mean values, untreated reference 100%",81.7%

# Source: patent US20180184655A1 (priority 2011, published 2018)
